Experimental data from US12679836B2, “4H-pyrrolo[3,2-c]pyridin-4-one compounds” (Bayer Aktiengesellschaft, priority 2019, dated 2026).
pIC50: −log10 of the molar value.

What was measured:
Assay type in all cases: cell-based
[1] = biological target: Ba/F3-EGFR L861Q cells (Homo sapiens, UniProt P00533, L861Q, cells depend on it); assay: Ba/F3 cell survival assay, EGFR L861Q; details: without IL-3, without EGF, 48 h; read-out: BA/F3 (EGFR L861Q) IC50
Method: (§1) 293T cells from ATCC were transfected with pBABEpuro expression constructs for mutant EGFR (V769_D770insASV, D770_N771insNPG, N771_P772insH, H773_V774insNPH, E746_A750del, L858R, D770_N771insSVD C797S, E746_A750del C797S, L858R C797S, L861Q) or mutant ERBB2 (A775_G776insYVMA) and pCL-Eco packaging vector using Fugene-6 transfection reagent from Promega. Plates were incubated at 37° C. for 48 h. Retrovirus was harvested by filtering the media supernatant through a 0.45 μm filter.
(§2) Ba/F3 cells purchased from DSMZ were grown in RPMI+10% FBS+10 ng/mL IL-3 and infected with filtered retroviral supernatant at a 1:2 dilution. Polybrene was added to a concentration of 8 μg/mL, plates were spun for 90 min, and incubated overnight at 37° C. 2 μg/mL puromycin was added to the infected cells 24 h after infection and cells were continually grown in the presence of puromycin and 10 ng/mL IL-3. Following stably expressing Ba/F3 cell lines were generated: Ba/F3-EGFR-V769_D770insASV, Ba/F3-EGFR-D770_N771insNPG, Ba/F3-EGFR-N771_P772insH, Ba/F3-EGFR-H773_V774insNPH, Ba/F3-EGFR-E746_A750del, Ba/F3-EGFR-L858R, Ba/F3-EGFR-D770_N771 insSVD C797S, Ba/F3-EGFR-E746_A750del C797S, Ba/F3-EGFR-L858R C797S, Ba/F3-EGFR L861Q and Ba/F3-ERBB2-A775_G776insYVMA (Ba/F3-vector-control).
(§3) For cell survival assays, Ba/F3 cells were grown to a density of 1-2 million cells per mL, spun down and resuspended in media without IL-3, and replated at a concentration 200,000-500,000 cells per mL. The cells ectopically expressing WT EGFR plated with 10 ng/mL Millipore Culture grade EGF and Ba/F3 cells containing mutant EGFR or Mutant ERBB2 were cultivated without EGF. The cells ectopically expressing pBABEpuro empty vector were plated with 10 ng/mL IL-3.
(§4) 2 days later, cells were plated in 50 μL in a 384 well plate at a concentration of 4000 cells per well for cells assayed in the absence of IL-3 and 2000 cells per well for cells assayed in the presence of IL-3. 100 nL of compound was added to each well using a 100 nL pin head, and plates were incubated at 37° C. for 48 h.
(§5) Cell viability was measured by adding 20 μL of Cell Titer-Glo Luminescent Cell Viability Reagent diluted 1:3 in PBS. Plates were sealed with Perkin Elmer Top-Seal, inverted several times to mix, and immediately centrifuged at 1000 rpm for 2 min. Plates were incubated in low light conditions for 8-10 min and luminescence was measured.

[2] = biological target: Ba/F3-EGFR-L858R C797S cells (Homo sapiens, UniProt P00533, C797S/L858R, cells depend on it); assay: Ba/F3 cell survival assay, EGFR L858R C797S; details: without IL-3, without EGF, 48 h; read-out: BA/F3 (EGFR L858R C797S) IC50
Method: as §1, §2, §3, §4, §5

[3] = test system: PC9 cells (EGFRex19del); assay: PC9 proliferation assay (Cell Titer Glo); details: Homo sapiens, PC-9, 72 h
Method: Cellular Data Description (PC9 Cells, EGFRex19del)
(§6) PC9 cells were purchased from ATCC. 400 PC9 cells per well were seeded in growth medium (DMEM, 10% FCS) in a 384-well plate (CORNING #3571). Seed reference plate for time zero determination on the same day. All plates were incubated overnight at 37° C. After 24 hours, test compound were added in 7-step dilution using HP Compound printer and incubated at 37° C. for 72 h. After 3 days, 30 μL/well CTG solution (Promega Cell Titer Glo solution; catalog # G755B and G756B) were added to each well, incubated for 30 minutes and the plate were read on PheraStar. Proliferation is calculated after subtracting time zero luminescence values from day 4 values and comparing to untreated wells. The IC50 values were determined using the four parameter fit.

[4] = test system: HCC-827 cells (EGFRex19del); assay: HCC-827 proliferation assay (Cell Titer Glo); details: Homo sapiens, HCC827, 72 h
Method: Cellular Data Description (HCC-827 Cells, EGFRex19del)
as §6, with “HCC-827 cells” for “PC9 cells”, “[…]” for “400 PC9”, “medium (RPM11640,” for “medium (DMEM,”, “wells.” for “wells. The IC50 values were determined using the four parameter fit.”
The IC50 values were determined using the four parameter fit.

Chain of Ba/F3-EGFR L861Q cells (P00533 whole entry L861Q): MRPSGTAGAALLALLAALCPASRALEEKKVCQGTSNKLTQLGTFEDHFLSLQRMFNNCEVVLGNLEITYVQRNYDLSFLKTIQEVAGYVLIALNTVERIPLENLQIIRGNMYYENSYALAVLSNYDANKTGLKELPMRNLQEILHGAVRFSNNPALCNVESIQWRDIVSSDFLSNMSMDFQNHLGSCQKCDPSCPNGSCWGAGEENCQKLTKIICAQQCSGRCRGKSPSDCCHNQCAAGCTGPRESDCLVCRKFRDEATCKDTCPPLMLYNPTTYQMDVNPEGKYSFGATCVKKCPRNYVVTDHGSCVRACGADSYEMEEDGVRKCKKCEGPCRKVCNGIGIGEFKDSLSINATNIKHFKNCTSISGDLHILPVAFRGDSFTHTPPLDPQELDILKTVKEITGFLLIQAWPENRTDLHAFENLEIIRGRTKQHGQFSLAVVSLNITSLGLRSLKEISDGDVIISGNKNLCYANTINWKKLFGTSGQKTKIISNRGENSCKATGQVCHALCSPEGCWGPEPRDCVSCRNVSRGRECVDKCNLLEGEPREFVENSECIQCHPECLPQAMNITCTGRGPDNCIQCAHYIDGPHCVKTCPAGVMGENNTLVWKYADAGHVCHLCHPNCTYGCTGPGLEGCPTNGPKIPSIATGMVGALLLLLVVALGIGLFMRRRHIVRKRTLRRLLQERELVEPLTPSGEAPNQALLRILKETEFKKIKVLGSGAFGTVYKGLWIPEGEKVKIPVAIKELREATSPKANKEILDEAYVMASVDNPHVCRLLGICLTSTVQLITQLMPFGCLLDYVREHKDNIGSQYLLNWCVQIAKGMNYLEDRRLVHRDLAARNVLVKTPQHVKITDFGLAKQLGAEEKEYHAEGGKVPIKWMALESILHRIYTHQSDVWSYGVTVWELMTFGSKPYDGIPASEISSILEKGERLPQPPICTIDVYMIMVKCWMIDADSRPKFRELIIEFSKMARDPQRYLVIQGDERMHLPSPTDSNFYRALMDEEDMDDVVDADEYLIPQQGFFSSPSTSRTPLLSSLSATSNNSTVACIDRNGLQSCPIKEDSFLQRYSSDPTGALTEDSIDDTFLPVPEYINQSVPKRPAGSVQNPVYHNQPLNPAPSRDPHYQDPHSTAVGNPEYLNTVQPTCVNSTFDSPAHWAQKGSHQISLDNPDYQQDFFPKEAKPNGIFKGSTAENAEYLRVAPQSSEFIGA
Chain of Ba/F3-EGFR-L858R C797S cells (P00533 whole entry C797S/L858R): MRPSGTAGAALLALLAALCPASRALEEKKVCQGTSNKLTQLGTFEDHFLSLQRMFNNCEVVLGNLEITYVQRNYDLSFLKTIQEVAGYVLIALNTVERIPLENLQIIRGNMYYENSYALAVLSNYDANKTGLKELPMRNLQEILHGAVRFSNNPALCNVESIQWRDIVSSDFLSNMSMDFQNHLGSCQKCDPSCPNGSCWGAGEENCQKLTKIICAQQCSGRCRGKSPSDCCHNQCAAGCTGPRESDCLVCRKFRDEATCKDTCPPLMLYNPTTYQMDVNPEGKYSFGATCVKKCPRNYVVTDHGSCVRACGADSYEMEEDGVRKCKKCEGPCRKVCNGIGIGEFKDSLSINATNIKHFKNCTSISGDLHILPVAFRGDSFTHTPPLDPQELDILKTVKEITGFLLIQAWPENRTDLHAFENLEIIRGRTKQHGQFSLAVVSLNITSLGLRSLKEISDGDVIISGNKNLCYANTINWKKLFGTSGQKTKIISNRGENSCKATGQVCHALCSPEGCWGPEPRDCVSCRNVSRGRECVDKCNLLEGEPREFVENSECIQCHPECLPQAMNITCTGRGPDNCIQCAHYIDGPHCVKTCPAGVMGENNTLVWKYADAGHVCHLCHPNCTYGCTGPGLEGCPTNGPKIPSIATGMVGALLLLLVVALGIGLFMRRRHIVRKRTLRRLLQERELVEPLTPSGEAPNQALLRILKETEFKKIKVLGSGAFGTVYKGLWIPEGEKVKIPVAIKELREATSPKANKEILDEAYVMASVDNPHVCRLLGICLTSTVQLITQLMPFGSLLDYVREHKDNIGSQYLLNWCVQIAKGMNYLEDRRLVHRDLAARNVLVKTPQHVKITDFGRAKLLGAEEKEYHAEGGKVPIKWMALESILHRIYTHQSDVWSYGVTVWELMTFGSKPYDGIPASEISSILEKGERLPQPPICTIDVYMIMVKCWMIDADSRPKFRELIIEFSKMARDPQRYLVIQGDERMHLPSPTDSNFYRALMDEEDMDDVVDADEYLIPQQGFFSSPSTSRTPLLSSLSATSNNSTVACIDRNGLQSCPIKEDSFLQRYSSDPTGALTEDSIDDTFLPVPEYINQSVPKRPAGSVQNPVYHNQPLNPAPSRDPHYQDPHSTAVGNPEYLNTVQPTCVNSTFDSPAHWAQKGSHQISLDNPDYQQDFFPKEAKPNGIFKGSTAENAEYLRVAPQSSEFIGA

| Compound | GI50 [1] | GI50 [2] | pIC50 [3] | pIC50 [4] |
| --- | --- | --- | --- | --- |
| COc1c(Cl)cccc1Nc1c(-c2ccncc2OC[C@@H]2COCCO2)[nH]c2c1C(=O)NCC2 (single isomer, unassigned) [Example 2] | 14.8 nM | 0.603 nM | 9.17 | > 8.52 |
| COc1c(F)cccc1Nc1c(-c2ccncc2OCC2COCCO2)[nH]c2c1C(=O)NCC2 (single isomer, unassigned) [Example 5, 2-{3-[(1,4-dioxan-2-yl)methoxy]pyridin-4-yl}-3-(3-fluoro-2-methoxyanilino)-1,5,6,7-tetrahydro-4H-pyrrolo[3,2-c]pyridin-4-one] | 30.9 nM | 2.67 nM | – | – |
| O=C1NCCc2[nH]c(-c3ccncc3OCC3COCCO3)c(Nc3cccc(Cl)c3Cl)c21 (single isomer, unassigned) [Example 8, 3-(2,3-dichloroanilino)-2-{3-[(1,4-dioxan-2-yl)methoxy]pyridin-4-yl}-1,5,6,7-tetrahydro-4H-pyrrolo[3,2-c]pyridin-4-one] | 13.7 nM | 1.2 nM | 9.13 | > 8.52 |
| COc1c(F)cccc1Nc1c(-c2ccncc2OCC2CN(C)CCO2)[nH]c2c1C(=O)NCC2 (single isomer, unassigned) [Example 14, 3-(3-fluoro-2-methoxyanilino)-2-{3-[(4-methylmorpholin-2-yl)methoxy]pyridin-4-yl}-1,5,6,7-tetrahydro-4H-pyrrolo[3,2-c]pyridin-4-one] | 20.1 nM | 1.91 nM | 8.67 | > 8.52 |
| COc1c(Cl)cccc1Nc1c(-c2ccncc2OCC2COC(C)(C)CO2)[nH]c2c1C(=O)NCC2 (single isomer, unassigned) [Example 32, 3-(3-chloro-2-methoxyanilino)-2-{3-[(5,5-dimethyl-1,4-dioxan-2-yl)methoxy]pyridin-4-yl}-1,5,6,7-tetrahydro-4H-pyrrolo[3,2-c]pyridin-4-one] | 17.4 nM | 1.12 nM | 8.77 | > 8.52 |
| Cc1c(Cl)cccc1Nc1c(-c2ccncc2OCC2COC(C)(C)CO2)[nH]c2c1C(=O)NCC2 (single isomer, unassigned) [Example 46, 3-(3-chloro-2-methyl-anilino)-2-[3-[(5,5-dimethyl-1,4-dioxan-2-yl)methoxy]-4-pyridyl]-1,5,6,7-tetrahydropyrrolo[3,2-c]pyridin-4-one] | 15.8 nM | – | 8.54 | > 8.52 |
| Cc1c(F)cccc1Nc1c(-c2ccncc2OCC2COCCO2)[nH]c2c1C(=O)NCC2 (single isomer, unassigned) [Example 48, 2-[3-(1,4-dioxan-2-ylmethoxy)-4-pyridyl]-3-(3-fluoro-2-methyl-anilino)-1,5,6,7-tetrahydropyrrolo[3,2-c]pyridin-4-one] | 39.7 nM | – | 8.47 | > 8.52 |
| Cc1c(Cl)cccc1Nc1c(-c2ccncc2OC[C@H]2COCCO2)[nH]c2c1C(=O)NCC2 (single isomer, unassigned) [Example 50] | 24 nM | 1.6 nM | 8.17 | > 8.52 |
| COc1c(F)cccc1Nc1c(-c2ccncc2OC[C@@H]2COCCN2C)[nH]c2c1C(=O)NCC2 [Example 20, 3-(3-fluoro-2-methoxyanilino)-2-(3-{[(3S)-4-methylmorpholin-3-yl]methoxy}pyridin-4-yl)-1,5,6,7-tetrahydro-4H-pyrrolo[3,2-c]pyridin-4-one] | – | 0.791 nM | 8.57 | > 8.52 |
| COc1c(Cl)cccc1Nc1c(-c2ccncc2OC[C@@H]2COCCN2C)[nH]c2c1C(=O)NCC2 [Example 21, 3-(3-chloro-2-methoxyanilino)-2-(3-{[(3S)-4-methylmorpholin-3-yl]methoxy}pyridin-4-yl)-1,5,6,7-tetrahydro-4H-pyrrolo[3,2-c]pyridin-4-one] | 7.34 nM | 0.444 nM | 8.94 | > 8.52 |
| Cc1c(Cl)cccc1Nc1c(-c2ccncc2OC[C@@H]2CN(C)CCO2)[nH]c2c1C(=O)NCC2 [Example 42, 3-(3-chloro-2-methylanilino)-2-(3-{[(2S)-4-methylmorpholin-2-yl]methoxy}pyridin-4-yl)-1,5,6,7-tetrahydro-4H-pyrrolo[3,2-c]pyridin-4-one] | 18.8 nM | 1.63 nM | 8.39 | > 8.52 |
| CCc1c(Cl)cccc1Nc1c(-c2ccncc2OC[C@@H]2CN(C)CCO2)[nH]c2c1C(=O)NCC2 [Example 56, 3-(3-chloro-2-ethylanilino)-2-(3-{[(2S)-4-methylmorpholin-2-yl]methoxy}pyridin-4-yl)-1,5,6,7-tetrahydro-4H-pyrrolo[3,2-c]pyridin-4-one] | 29.5 nM | 1.31 nM | 8.76 | > 8.52 |
